In US10611775B2, “Thiophene derivatives” (TIANJIN HEMAY PHARMACEUTICAL CO., LTD., priority 2009, dated 2020):

Columns and labels:
[1] = target: T1, PDE4B1 (Homo sapiens, UniProt Q07343); assay: Inhibitory activity of PDE4 enzyme (hydrolysis of cAMP), PDE4B1; assay type: biochemical; conditions: cAMP 5 μM, 37° C., 15 min to 30 min, AMP by HPLC-MS
T1 construct: purchased BPS bioscience 60041
Description: (§1) (1) The inhibitory actions of compounds on activity of hydrolyzing cAMP with PDE4 enzyme were assayed by the inhibitory activity of PDE4 enzyme. The procedures are described as follows.
(§2) Humanized PDE4A1A, PDE4B1 and PDE4D2 were purchased from BPS bioscience (catalogue Nos.: 60040, 60041 and 60043, respectively). The enzyme reactions were carried out in 10 mM Tris-HCl (pH 7.4) and 1 mM MgCl2. The concentration of cAMP was 5 μM. The reaction was maintained at 37° C. for 15 min to 30 min so that the consumption of the substrate was controlled within 20%. The reaction was quenched with equal volume of acetonitrile. The production amount of the […] AMP was measured by HPLC-MS. The inhibitory activity of compounds on PDE4 enzyme was obtained by comparing the production amounts of the AMP in the experimental groups having the compounds with those of the control groups having no compounds.

[2] = target: T2, PDE4D2 (Homo sapiens, UniProt Q08499); assay: Inhibitory activity of PDE4 enzyme (hydrolysis of cAMP), PDE4D2; assay type: biochemical; conditions: cAMP 5 μM, 37° C., 15 min to 30 min, AMP by HPLC-MS
T2 construct: purchased BPS bioscience 60043
Description: as §1, §2

[3] = system: TNFα release by PBMCs stimulated by LPS; assay: Inhibition of TNFα release by mononuclear cells (PBMCs) stimulated by LPS; assay type: cell-based; conditions: compound 1 hour before LPS, further 20 hours, TNFα in supernate by ELISA
Excerpt: 1. Effects of Mononuclear Cells (PBMCs) Stimulated by LPS on TNFα
The research in respect of cytokine TNFα release by PBMCs in the human peripheral blood after stimulated by lipopolysaccharide (LPS) can be carried out in vitro. The research method for inhibiting cytokine TNFα release by PBMCs upon stimulation by LPS with the pharmaceutical active ingredients in the present application is described as follows.
PBMCs are obtained from heparin treated blood of at least three volunteer donors. The heparin treated blood of at least three volunteer donors was subject to gradient separation of the known method to obtain PBMCs. The PBMCs were collected and washed with 1640 medium (10% fetal bovine serum, 2 mM L-glutamine, […] mercaptoethanol, 50 μg/ml streptomycin and 50 U/ml penicillin) three times. The PBMCs was added into a 24-well plate and prepared with a concentration of 1×10^6 cell/ml with 1640 medium. A compound to be tested was dissolved in dimethylsulfoxide and prepared as a solution of the compound to be tested with a required concentration. The solution was added into the cell cultures. After incubated in a CO2 incubator (5% CO2, 90% humidity) for 1 hour, LPS (Sigma) was added until […] (except for the control).
After the medium was further incubated for 20 hours, the content of TNFα in the supernate of the PBMCs medium was measured by the standard method with commercial ELISA kit (U. S Genzyme Co). The inhibition ratio of TNFα was calculated by the measured value of control well without treated by active ingredients and the measured value of the test well using the test compound. The concentration of generating 50% inhibition of the TNFα release (IC50 value) was calculated with nonlinear regression analysis. Each concentration was measured twice simultaneously and an average value was calculated.

[4] = target: T3, PDE2A (Homo sapiens, UniProt O00408); assay: Inhibitory activity of PDE2 (selectivity of PDE enzyme); assay type: biochemical; conditions: cAMP 5 μM, 37° C., 30 min, AMP by HPLC-MS
T3 construct: purchased BPS bioscience 60020
Description: (2) Inhibitory Activity of PDE2 (Selectivity of PDE Enzyme):
as §2, with “PDE2A was” for “PDE4A1A, PDE4B1 and PDE4D2 were”, “No.: 60020).” for “Nos.: 60040, 60041 and 60043, respectively).”, “reaction was” for “reactions were”, “μM,” for “μM.”, “for” for “for 15 min to”, “PDE2” for “PDE4 enzyme”

[5] = target: T4, PDE4A1A (Homo sapiens, UniProt P27815); assay: Inhibitory activity of PDE4 enzyme (hydrolysis of cAMP), PDE4A1A; assay type: biochemical; conditions: cAMP 5 μM, 37° C., 15 min to 30 min, AMP by HPLC-MS
T4 construct: purchased BPS bioscience 60040
Description: as §1, §2

T2 sequence (Q08499 303-809): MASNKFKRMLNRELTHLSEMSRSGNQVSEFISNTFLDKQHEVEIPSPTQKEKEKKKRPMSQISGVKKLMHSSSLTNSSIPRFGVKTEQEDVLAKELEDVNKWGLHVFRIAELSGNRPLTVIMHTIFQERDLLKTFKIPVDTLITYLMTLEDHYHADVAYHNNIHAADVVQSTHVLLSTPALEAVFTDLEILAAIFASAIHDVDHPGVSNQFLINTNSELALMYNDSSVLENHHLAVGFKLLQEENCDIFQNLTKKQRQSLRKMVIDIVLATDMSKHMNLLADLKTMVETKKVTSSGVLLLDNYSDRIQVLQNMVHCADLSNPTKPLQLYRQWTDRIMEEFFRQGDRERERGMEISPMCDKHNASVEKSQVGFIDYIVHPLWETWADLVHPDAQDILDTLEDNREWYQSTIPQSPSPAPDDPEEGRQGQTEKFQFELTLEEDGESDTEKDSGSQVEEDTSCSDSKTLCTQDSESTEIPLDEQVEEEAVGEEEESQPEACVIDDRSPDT
T1 sequence (Q07343 whole entry): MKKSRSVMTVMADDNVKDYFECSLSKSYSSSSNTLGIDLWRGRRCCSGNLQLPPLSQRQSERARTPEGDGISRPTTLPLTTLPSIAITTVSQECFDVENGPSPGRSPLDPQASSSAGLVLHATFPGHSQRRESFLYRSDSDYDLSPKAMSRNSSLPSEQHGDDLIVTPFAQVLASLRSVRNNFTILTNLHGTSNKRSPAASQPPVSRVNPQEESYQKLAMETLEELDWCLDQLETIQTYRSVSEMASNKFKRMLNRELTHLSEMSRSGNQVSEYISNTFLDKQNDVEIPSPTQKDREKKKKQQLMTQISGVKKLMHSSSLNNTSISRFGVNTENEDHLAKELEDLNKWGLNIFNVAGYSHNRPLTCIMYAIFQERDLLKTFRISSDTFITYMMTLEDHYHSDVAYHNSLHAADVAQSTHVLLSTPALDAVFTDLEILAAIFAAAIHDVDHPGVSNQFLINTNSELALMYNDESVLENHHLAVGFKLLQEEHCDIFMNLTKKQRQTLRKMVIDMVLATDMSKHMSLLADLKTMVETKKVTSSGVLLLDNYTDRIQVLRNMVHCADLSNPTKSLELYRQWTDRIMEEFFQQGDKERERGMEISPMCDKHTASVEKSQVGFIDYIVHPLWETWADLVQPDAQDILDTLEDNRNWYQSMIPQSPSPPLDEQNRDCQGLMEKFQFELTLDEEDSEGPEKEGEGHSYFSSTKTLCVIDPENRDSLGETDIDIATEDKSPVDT
T4 sequence (P27815 1-647 isoform P27815-4): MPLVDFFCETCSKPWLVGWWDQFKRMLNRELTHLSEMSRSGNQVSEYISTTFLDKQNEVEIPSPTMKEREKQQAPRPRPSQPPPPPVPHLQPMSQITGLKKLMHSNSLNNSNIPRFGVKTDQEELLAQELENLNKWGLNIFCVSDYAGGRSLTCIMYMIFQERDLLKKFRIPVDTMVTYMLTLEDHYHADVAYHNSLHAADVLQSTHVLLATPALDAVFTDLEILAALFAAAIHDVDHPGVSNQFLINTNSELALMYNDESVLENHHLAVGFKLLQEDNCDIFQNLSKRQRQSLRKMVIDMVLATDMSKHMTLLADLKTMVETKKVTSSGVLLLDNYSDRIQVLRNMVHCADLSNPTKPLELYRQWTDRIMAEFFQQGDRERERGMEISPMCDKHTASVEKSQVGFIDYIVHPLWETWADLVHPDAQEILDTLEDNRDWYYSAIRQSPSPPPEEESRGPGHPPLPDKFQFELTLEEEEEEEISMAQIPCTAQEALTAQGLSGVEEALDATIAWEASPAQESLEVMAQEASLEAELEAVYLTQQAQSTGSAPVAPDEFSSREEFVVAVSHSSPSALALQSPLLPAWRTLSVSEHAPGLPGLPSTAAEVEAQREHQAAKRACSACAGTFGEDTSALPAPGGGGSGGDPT
T3 sequence (O00408 whole entry): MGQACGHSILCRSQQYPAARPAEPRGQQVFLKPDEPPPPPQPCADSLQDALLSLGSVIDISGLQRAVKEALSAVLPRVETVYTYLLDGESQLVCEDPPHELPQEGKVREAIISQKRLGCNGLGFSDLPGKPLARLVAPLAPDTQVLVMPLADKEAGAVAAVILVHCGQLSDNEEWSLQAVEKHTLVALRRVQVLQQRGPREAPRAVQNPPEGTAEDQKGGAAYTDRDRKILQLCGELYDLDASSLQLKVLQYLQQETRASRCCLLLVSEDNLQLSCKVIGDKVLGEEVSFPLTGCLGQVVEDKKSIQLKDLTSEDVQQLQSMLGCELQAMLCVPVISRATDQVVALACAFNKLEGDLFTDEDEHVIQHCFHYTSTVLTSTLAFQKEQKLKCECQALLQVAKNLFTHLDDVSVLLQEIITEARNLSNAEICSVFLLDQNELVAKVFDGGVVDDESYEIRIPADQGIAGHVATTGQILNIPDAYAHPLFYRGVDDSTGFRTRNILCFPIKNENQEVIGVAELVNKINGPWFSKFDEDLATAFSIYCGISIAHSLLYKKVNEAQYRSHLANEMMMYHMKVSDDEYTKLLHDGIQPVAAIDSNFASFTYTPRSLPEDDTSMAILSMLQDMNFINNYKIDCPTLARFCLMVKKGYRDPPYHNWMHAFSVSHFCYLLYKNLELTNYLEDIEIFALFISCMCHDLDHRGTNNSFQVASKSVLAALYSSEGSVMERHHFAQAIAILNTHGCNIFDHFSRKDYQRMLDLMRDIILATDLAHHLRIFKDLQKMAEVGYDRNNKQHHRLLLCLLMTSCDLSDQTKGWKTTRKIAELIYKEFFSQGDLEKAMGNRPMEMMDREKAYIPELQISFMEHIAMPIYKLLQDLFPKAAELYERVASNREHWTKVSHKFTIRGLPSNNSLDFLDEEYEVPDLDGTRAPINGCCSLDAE

CCOc1cc(C(CS(C)(=O)=O)N2C(=O)c3csc(N)c3C2=O)ccc1OC (stereo not shown) [Example 2, 5-(1-(3-ethoxy-4-methoxyphenyl)-2-(methylsulfonyl)ethyl)-1-amino-5H-thiophene[3,4-c]pyrrole-4,6-diketone]
IC50 [1]: 212 nM | IC50 [2]: 1900 nM | IC50 ([3]; Homo sapiens, PBMC): 524 nM

CCOc1cc(C(CS(C)(=O)=O)N2C(=O)c3csc(NC(C)=O)c3C2=O)ccc1OC (stereo not shown) [Example 3, N-(5-(1-(3-ethoxy-4-methoxyphenyl)-2-(methylsulfonyl)ethyl)-4,6-dioxo-5,6-dihydro-4H-thiophene[3,4-c]pyrrole-1-yl)acetamide]
IC50 [1]: 256 nM | IC50 [4]: 36000 nM | IC50 [5]: 208 nM | IC50 [2]: 224 nM | IC50 ([3]; human PBMCs): 296 nM

CCOc1cc(C(CS(C)(=O)=O)N2C(=O)c3cscc3C2=O)ccc1OC (stereo not shown) [Example 4, 5-(1-(3-ethoxy-4-methoxyphenyl)-2-(methylsulfonyl)ethyl)-5H-thiophene[3,4-c]pyrrole-4,6-diketone]
IC50 [1]: 1200 nM | IC50 [5]: 366 nM | IC50 [2]: 329 nM | IC50 ([3]; Homo sapiens, PBMC): 886 nM

CCOc1cc([C@@H](CS(C)(=O)=O)N2C(=O)c3cscc3C2=O)ccc1OC [Example 5, (S)-5-(1-(3-ethoxy-4-methoxyphenyl)-2-(methylsulfonyl)ethyl)-5H-thiophene[3,4-c]pyrrole-4,6-diketone]
IC50 [1]: 368 nM | IC50 ([3]; Homo sapiens, PBMC): 376 nM

CCOc1cc([C@H](CS(C)(=O)=O)N2C(=O)c3cscc3C2=O)ccc1OC [Example 6, (R)-5-(1-(3-ethoxy-4-methoxyphenyl)-2-(methylsulfonyl)ethyl)-5H-thiophene[3,4-c]pyrrole-4,6-diketone]
IC50 [1]: 2300 nM | IC50 [2]: 315 nM | IC50 ([3]; Homo sapiens, PBMC): 2500 nM

COc1ccc(C(CS(C)(=O)=O)N2C(=O)c3cscc3C2=O)cc1OCc1ccccc1 (stereo not shown) [Example 9, 5-(1-(3-phenylmethoxy-4-methoxyphenyl)-2-(methylsulfonyl)ethyl)-5H-thiophene[3,4-c]pyrrole-4,6-diketone]
IC50 [1]: 5300 nM | IC50 [2]: 831 nM | IC50 ([3]; Homo sapiens, PBMC): 7500 nM

COc1ccc(C(CS(C)(=O)=O)N2C(=O)c3csc(N)c3C2=O)cc1OCc1ccccc1 (stereo not shown) [Example 11, 5-(1-(3-phenylmethoxy-4-methoxyphenyl)-2-(methylsulfonyl)ethyl)-1-amino-5H-thiophene[3,4-c]pyrrole-4,6-diketone]
IC50 [1]: 1000 nM | IC50 ([3]; Homo sapiens, PBMC): > 10000 nM

COc1ccc(C(CS(C)(=O)=O)N2C(=O)c3csc(NC(C)=O)c3C2=O)cc1OCc1ccccc1 (stereo not shown) [Example 12, N-(5-(1-(3-phenylmethoxy-4-methoxyphenyl)-2-(methylsulfonyl)ethyl)-4,6-dioxo-5,6-dihydro-4H-thiophene[3,4-c]pyrrole-1-yl)acetamide]
IC50 [1]: 1200 nM | IC50 ([3]; Homo sapiens, PBMC): > 10000 nM

CCOc1cc(C(CS(C)(=O)=O)N2C(=O)c3csc(NC(=O)CCl)c3C2=O)ccc1OC (stereo not shown) [Example 18, 2-chloro-N-(5-(1-(3-ethoxy-4-methoxyphenyl)-2-(methylsulfonyl)ethyl)-4,6-diketone-5,6-dihydro-4H-thiophene[3,4-c]pyrrole-1-yl)acetamide]
IC50 [1]: 618 nM | IC50 ([3]; Homo sapiens, PBMC): 216 nM

CCOc1cc(C(CS(C)(=O)=O)N2C(=O)c3csc(NS(C)(=O)=O)c3C2=O)ccc1OC (stereo not shown) [Example 19, N-(5-(1-(3-ethoxy-4-methoxyphenyl)-2-(methylsulfonyl)ethyl)-4,6-diketone-5,6-dihydro-4H-thiophene[3,4-c]pyrrole-1-yl)methanesulfonamide]
IC50 [1]: 167 nM | IC50 ([3]; Homo sapiens, PBMC): 288 nM

CCOc1cc([C@@H](CS(C)(=O)=O)N2C(=O)c3csc([N+](=O)[O-])c3C2=O)ccc1OC [Example 20, (S)-1-nitro-5-(1-(3-ethoxy-4-methoxyphenyl)-2-(methylsulfonyl)ethyl)-5H-thiophene[3,4-c]pyrrole-4,6-diketone]
IC50 [1]: 26 nM

CCOc1cc([C@@H](CS(C)(=O)=O)N2C(=O)c3csc(N)c3C2=O)ccc1OC [Example 21, (S)-1-amino-5-(1-(3-ethoxy-4-methoxyphenyl)-2-(methylsulfonyl)ethyl)-5H-thiophene[3,4-c]pyrrole-4,6-diketone]
IC50 ([3]; human PBMCs): 142 nM

CCOc1cc([C@H](CS(C)(=O)=O)N2C(=O)c3csc(N)c3C2=O)ccc1OC [Example 23, (R)-1-amino-5-(1-(3-ethoxy-4-methoxyphenyl)-2-(methylsulfonyl)ethyl)-5H-thiophene[3,4-c]pyrrole-4,6-diketone]
IC50 [1]: 718 nM | IC50 [2]: 55 nM | IC50 ([3]; Homo sapiens, PBMC): 1900 nM

CCOc1cc([C@@H](CS(C)(=O)=O)N2C(=O)c3csc(NC(C)=O)c3C2=O)ccc1OC [Example 24, (S)—N-(5-(1-(3-ethoxy-4-methoxyphenyl)-2-(methylsulfonyl)ethyl)-4,6-dioxo-5,6-dihydro-4H-thiophene[3,4-c]pyrrole-1-yl)acetamide]
IC50 [1]: 178 nM | IC50 [4]: > 50000 nM | IC50 [5]: 104 nM | IC50 [2]: 114 nM | IC50 ([3]; human PBMCs): 65 nM

CCOc1cc([C@H](CS(C)(=O)=O)N2C(=O)c3csc(NC(C)=O)c3C2=O)ccc1OC [Example 25, (R)—N-(5-(1-(3-ethoxy-4-methoxyphenyl)-2-(methylsulfonyl)ethyl)-4,6-dioxo-5,6-dihydro-4H-thiophene[3,4-c]pyrrole-1-yl)acetamide]
IC50 ([3]; human PBMCs): 1190 nM

CCOc1ccc(C(CS(C)(=O)=O)N2C(=O)c3csc(NC(C)=O)c3C2=O)cc1OC (stereo not shown) [Example 26, N-(5-(1-(3-methoxy-4-ethoxyphenyl)-2-(methylsulfonyl)ethyl)-4,6-dioxo-5,6-dihydro-4H-thiophene[3,4-c]pyrrole-1-yl)acetamide]
IC50 ([3]; human PBMCs): > 10000 nM
